System: 84 genes related to inflammatory and autoimmune processes
Assay: Mouse Inflammatory Response and Autoimmunity PCR Array, whole brain
Type: in vivo
Conditions: brain 24 h
Procedure: Frozen, pulverized whole brain tissue was processed for RNA extraction from a separate cohort of treated and untreated injured animals on days 1 post-injury(CN-105, n = 4; vehicle, n = 3; Control(sham-operated), n = 3). Total RNA was extracted from frozen, pulverized whole brain tissue using RNeasy Lipid Tissue Mini Kit(Qiagen, Valencia, CA). RNA quantity and quality was assessed with the NanoDrop ND-1000 spectrophotometer(NanoDrop Technologies, Inc., Wilmington, DE) and by agarose gel electrophoresis. Only samples with a 260/280 ratio between 1.9–2.1, and a 260/230 ratio greater than 2.0, were further processed. First strand complementary DNA(cDNA) was generated from 2 μg total RNA using the RT[2] First strand kit(SABiosciences, Frederick, MD.)
Gene expression was measured using the Mouse Inflammatory Response and Autoimmunity PCR Array(SABiosciences, Frederick, MD), which profiles the expression of 84 genes related to inflammatory and autoimmune processes. RT-PCR was performed according to manufacturer’s instructions Quality of the cDNA and PCR efficiency was verified by housekeeping genes and RT-PCR controls included in the PCR Array.
Raw RT-PCR data were analyzed using the Web-Based PCR Array Data Analysis software(SABiosciences). ΔCt values and ΔΔCt - based fold-change were calculated from raw threshold cycle data, using beta-actin and glyceraldehyde 3-phosphate dehydrogenase(GAPDH) as internal standards for normalization. Fold changes were then normalized against sham-operated controls.

Ac-VSRRR-amide [CN-105] was tested, and the “Il22ra2 ΔCt value, S-CN-105” value (sham + CN-105 0.05 mg/kg iv) was 1.1E − 04, the “Il22 ΔCt value, S-CN-105” value (sham + CN-105 0.05 mg/kg iv) was 4.7E − 04 and the “Il23a ΔCt value, S-CN-105” value (sham + CN-105 0.05 mg/kg iv) was 8.0E − 05. The “Il23r ΔCt value, S-CN-105” value (sham + CN-105 0.05 mg/kg iv) was 1.5E − 04, the “Itgb2 ΔCt value, S-CN-105” value (sham + CN-105 0.05 mg/kg iv) was 1.3E − 02 and the “Kng1 ΔCt value, S-CN-105” value (sham + CN-105 0.05 mg/kg iv) was 1.4E − 05. The “Lta ΔCt value, S-CN-105” value (sham + CN-105 0.05 mg/kg iv) was 2.6E − 04, the “Ltb ΔCt value, S-CN-105” value (sham + CN-105 0.05 mg/kg iv) was 1.0E − 03 and the “Ly96 ΔCt value, S-CN-105” value (sham + CN-105 0.05 mg/kg iv) was 7.2E − 03. For the same substance, the “Myd88 ΔCt value, S-CN-105” value (sham + CN-105 0.05 mg/kg iv) was 1.1E − 03, the “Nfatc3 ΔCt value, S-CN-105” value (sham + CN-105 0.05 mg/kg iv) was 2.1E − 02 and the “Nfkb1 ΔCt value, S-CN-105” value (sham + CN-105 0.05 mg/kg iv) was 3.1E − 02. The “Nos2 ΔCt value, S-CN-105” value (sham + CN-105 0.05 mg/kg iv) was 8.9E − 05, the “Nr3c1 ΔCt value, S-CN-105” value (sham + CN-105 0.05 mg/kg iv) was 4.0E − 01 and the “Ripk2 ΔCt value, S-CN-105” value (sham + CN-105 0.05 mg/kg iv) was 1.1E − 02. The “Tirap ΔCt value, S-CN-105” value (sham + CN-105 0.05 mg/kg iv) was 7.8E − 03, the “Tlr1 ΔCt value, S-CN-105” value (sham + CN-105 0.05 mg/kg iv) was 1.0E − 03 and the “Tlr2 ΔCt value, S-CN-105” value (sham + CN-105 0.05 mg/kg iv) was 1.3E − 03. The “Tlr3 ΔCt value, S-CN-105” value (sham + CN-105 0.05 mg/kg iv) was 2.3E − 02, the “Tlr4 ΔCt value, S-CN-105” value (sham + CN-105 0.05 mg/kg iv) was 3.5E − 03 and the “Tlr5 ΔCt value, S-CN-105” value (sham + CN-105 0.05 mg/kg iv) was 6.3E − 04. The “Tlr6 ΔCt value, S-CN-105” value (sham + CN-105 0.05 mg/kg iv) was 6.2E − 04, the “Tlr7 ΔCt value, S-CN-105” value (sham + CN-105 0.05 mg/kg iv) was 2.6E − 03 and the “Tnf ΔCt value, S-CN-105” value (sham + CN-105 0.05 mg/kg iv) was 3.5E − 05. The “Tnfsf14 ΔCt value, S-CN-105” value (sham + CN-105 0.05 mg/kg iv) was 1.3E − 04, the “Tollip ΔCt value, S-CN-105” value (sham + CN-105 0.05 mg/kg iv) was 3.2E − 01 and the “Bcl6 fold change S-CN-105/S-v” value (sham CN-105 vs sham vehicle) was 1.3. The “C3ar1 fold change S-CN-105/S-v” value (sham CN-105 vs sham vehicle) was 1.2, the “C3 fold change S-CN-105/S-v” value (sham CN-105 vs sham vehicle) was 1.7 and the “C4b fold change S-CN-105/S-v” value (sham CN-105 vs sham vehicle) was 2.0. The “Ccl2 fold change S-CN-105/S-v” value (sham CN-105 vs sham vehicle) was 1.4, the “Ccl3 fold change S-CN-105/S-v” value (sham CN-105 vs sham vehicle) was 1.6 and the “Ccl4 fold change S-CN-105/S-v” value (sham CN-105 vs sham vehicle) was 1.0. For the same substance, the “Ccl5 fold change S-CN-105/S-v” value (sham CN-105 vs sham vehicle) was 1.2, the “Ccl7 fold change S-CN-105/S-v” value (sham CN-105 vs sham vehicle) was 1.3 and the “Ccl8 fold change S-CN-105/S-v” value (sham CN-105 vs sham vehicle) was 2.8. For the same substance, the “Ccl11 fold change S-CN-105/S-v” value (sham CN-105 vs sham vehicle) was 3.2, the “Ccl12 fold change S-CN-105/S-v” value (sham CN-105 vs sham vehicle) was 1.8 and the “Ccl17 fold change S-CN-105/S-v” value (sham CN-105 vs sham vehicle) was 1.6. For the same substance, the “Ccl19 fold change S-CN-105/S-v” value (sham CN-105 vs sham vehicle) was 1.5, the “Ccl20 fold change S-CN-105/S-v” value (sham CN-105 vs sham vehicle) was 4.4 and the “Ccl22 fold change S-CN-105/S-v” value (sham CN-105 vs sham vehicle) was 3.1. The “Ccl24 fold change S-CN-105/S-v” value (sham CN-105 vs sham vehicle) was 3.0, the “Ccl25 fold change S-CN-105/S-v” value (sham CN-105 vs sham vehicle) was 2.6 and the “Ccr1 fold change S-CN-105/S-v” value (sham CN-105 vs sham vehicle) was −1.1. The “Ccr2 fold change S-CN-105/S-v” value (sham CN-105 vs sham vehicle) was 2.1, the “Ccr3 fold change S-CN-105/S-v” value (sham CN-105 vs sham vehicle) was 1.2 and the “Ccr4 fold change S-CN-105/S-v” value (sham CN-105 vs sham vehicle) was 1.5. For the same substance, the “Ccr7 fold change S-CN-105/S-v” value (sham CN-105 vs sham vehicle) was 1.8, the “Cd40 fold change S-CN-105/S-v” value (sham CN-105 vs sham vehicle) was 1.5 and the “Cebpb fold change S-CN-105/S-v” value (sham CN-105 vs sham vehicle) was 1.6. For the same substance, the “Csf1 fold change S-CN-105/S-v” value (sham CN-105 vs sham vehicle) was 1.7, the “Cxcl1 fold change S-CN-105/S-v” value (sham CN-105 vs sham vehicle) was 2.7 and the “Cxcl2 fold change S-CN-105/S-v” value (sham CN-105 vs sham vehicle) was 4.2. For the same substance, the “Cxcl3 fold change S-CN-105/S-v” value (sham CN-105 vs sham vehicle) was 0.8, the “Cxcl5 fold change S-CN-105/S-v” value (sham CN-105 vs sham vehicle) was 1.7 and the “Cxcl9 fold change S-CN-105/S-v” value (sham CN-105 vs sham vehicle) was 1.5. For the same substance, the “Cxcl10 fold change S-CN-105/S-v” value (sham CN-105 vs sham vehicle) was 2.1, the “Cxcl11 fold change S-CN-105/S-v” value (sham CN-105 vs sham vehicle) was 3.8 and the “Cxcr4 fold change S-CN-105/S-v” value (sham CN-105 vs sham vehicle) was 1.5. The “Fasl fold change S-CN-105/S-v” value (sham CN-105 vs sham vehicle) was 0.9, the “Flt3l fold change S-CN-105/S-v” value (sham CN-105 vs sham vehicle) was 1.5 and the “Fos fold change S-CN-105/S-v” value (sham CN-105 vs sham vehicle) was 1.6. For the same substance, the “Hdac4 fold change S-CN-105/S-v” value (sham CN-105 vs sham vehicle) was 1.5, the “Ifng fold change S-CN-105/S-v” value (sham CN-105 vs sham vehicle) was 0.8 and the “Il1a fold change S-CN-105/S-v” value (sham CN-105 vs sham vehicle) was 1.4. The “Il1b fold change S-CN-105/S-v” value (sham CN-105 vs sham vehicle) was 1.8, the “Il1r1 fold change S-CN-105/S-v” value (sham CN-105 vs sham vehicle) was 2.6 and the “Il1rap fold change S-CN-105/S-v” value (sham CN-105 vs sham vehicle) was 1.5. The “Il6 fold change S-CN-105/S-v” value (sham CN-105 vs sham vehicle) was −1.3, the “Il6ra fold change S-CN-105/S-v” value (sham CN-105 vs sham vehicle) was 1.5 and the “Il7 fold change S-CN-105/S-v” value (sham CN-105 vs sham vehicle) was 3.1. The “Il8rb fold change S-CN-105/S-v” value (sham CN-105 vs sham vehicle) was 7.3, the “Il10 fold change S-CN-105/S-v” value (sham CN-105 vs sham vehicle) was 5.7 and the “Il10rb fold change S-CN-105/S-v” value (sham CN-105 vs sham vehicle) was 2.0. For the same substance, the “Il18 fold change S-CN-105/S-v” value (sham CN-105 vs sham vehicle) was 2.0, the “Il22 fold change S-CN-105/S-v” value (sham CN-105 vs sham vehicle) was 10.8 and the “Il22ra2 fold change S-CN-105/S-v” value (sham CN-105 vs sham vehicle) was 4.8. For the same substance, the “Il23a fold change S-CN-105/S-v” value (sham CN-105 vs sham vehicle) was 3.0, the “Il23r fold change S-CN-105/S-v” value (sham CN-105 vs sham vehicle) was 1.4 and the “Itgb2 fold change S-CN-105/S-v” value (sham CN-105 vs sham vehicle) was 2.5. For the same substance, the “Lta fold change S-CN-105/S-v” value (sham CN-105 vs sham vehicle) was 2.3, the “Ltb fold change S-CN-105/S-v” value (sham CN-105 vs sham vehicle) was 2.0 and the “Ly96 fold change S-CN-105/S-v” value (sham CN-105 vs sham vehicle) was 1.9. The “Myd88 fold change S-CN-105/S-v” value (sham CN-105 vs sham vehicle) was 1.5, the “Nfatc3 fold change S-CN-105/S-v” value (sham CN-105 vs sham vehicle) was 2.4 and the “Nfkb1 fold change S-CN-105/S-v” value (sham CN-105 vs sham vehicle) was 1.8. For the same substance, the “Nos2 fold change S-CN-105/S-v” value (sham CN-105 vs sham vehicle) was 1.0, the “Nr3c1 fold change S-CN-105/S-v” value (sham CN-105 vs sham vehicle) was 2.0 and the “Ripk2 fold change S-CN-105/S-v” value (sham CN-105 vs sham vehicle) was 1.5. For the same substance, the “Tirap fold change S-CN-105/S-v” value (sham CN-105 vs sham vehicle) was 2.1, the “Tlr1 fold change S-CN-105/S-v” value (sham CN-105 vs sham vehicle) was 2.2 and the “Tlr2 fold change S-CN-105/S-v” value (sham CN-105 vs sham vehicle) was 1.4. For the same substance, the “Tlr3 fold change S-CN-105/S-v” value (sham CN-105 vs sham vehicle) was 1.6, the “Tlr4 fold change S-CN-105/S-v” value (sham CN-105 vs sham vehicle) was 1.1 and the “Tlr5 fold change S-CN-105/S-v” value (sham CN-105 vs sham vehicle) was 0.9. The “Tlr6 fold change S-CN-105/S-v” value (sham CN-105 vs sham vehicle) was 1.3, the “Tlr7 fold change S-CN-105/S-v” value (sham CN-105 vs sham vehicle) was 1.6 and the “Tnf fold change S-CN-105/S-v” value (sham CN-105 vs sham vehicle) was 1.3. The “Tnfsf14 fold change S-CN-105/S-v” value (sham CN-105 vs sham vehicle) was 5.2, the “Tollip fold change S-CN-105/S-v” value (sham CN-105 vs sham vehicle) was 1.9 and the “downregulation of gene expression, sham CN-105 vs sham vehicle” value (sham mice, 0.05 mg/kg) was “No downregulation of gene expression was observed”.
